Where two headings read alike, the source gives them in different places.
Biological target: proteinase K (Parengyodontium album, UniProt P06873)
Settings: relative to 0 min control buffer without chaotropic agent (0.5 U/ml = 100%); for Activity of proteinase K at t = 0 min: 0 min value; for Activity of proteinase K at t = 15 min: 15 min value
Procedure: 10 μl of a 20 mg/ml stock solution of proteinase K (Roche Diagnostics GmbH, Mannheimm, catalogue no. 745723; 90 mg dissolved in 4.5 ml water) was mixed with a chaotropic buffer containing 50 mM Tris-HCl pH 6.0, 1% DTT, 20% TRITON X-100 and x M Guanidinum thiocyanate; x=0, 1, 2, 3, 4, 5, 6). Directly after mixing the proteinase K activity was measured in a first aliquot (10 μl) of the mixture using the assay described below (0 min activity value). 15 min after mixing the proteinase K activity was measured in a second aliquot (10 μl) of the mixture using the assay described below (15 min activity value).
10 μl of the proteinase K in chaotropic buffer (see above, (A)) were mixed with assay buffer, that is to say 980 μl 0.2 M Triethanolamin, 0.05% (weight by volume) PEG 6000, 0.1 M Calcium chloride, and 10 μl of a 200 mM substate solution. The substrate was Suc-Ala-Ala-Ala-p-Nitroanilid. The assay buffer was provided in a cuvette. Immediately after mixing the cuvette was placed in a Photometer. Measurements (absorption) were taken over 15 min at 25° C. The activity of proteinase K in the assay buffer was calculated from the kinetics as indicated by a change in absorption at 405 nm.
Table 1 lists the 0 min values of the activity of proteinase K in the presence of guanidinium thiocyanate at the different concentrations given in (A). Table 2 lists the 15 min values of the activity of proteinase K in the presence of guanidinium thiocyanate at the different concentrations given in (A) as well as the control value (no chaotropic agent present). The values are expressed in relation to the 0 min activity value of proteinase K in the control buffer without chaotropic agent (see (A)), corresponding to 0.5 U/ml; this value was set as 100%. The data of Table 1 and Table 2 are graphically represented in FIG. 1 and FIG. 2.

Chain of proteinase K (P06873 106-384): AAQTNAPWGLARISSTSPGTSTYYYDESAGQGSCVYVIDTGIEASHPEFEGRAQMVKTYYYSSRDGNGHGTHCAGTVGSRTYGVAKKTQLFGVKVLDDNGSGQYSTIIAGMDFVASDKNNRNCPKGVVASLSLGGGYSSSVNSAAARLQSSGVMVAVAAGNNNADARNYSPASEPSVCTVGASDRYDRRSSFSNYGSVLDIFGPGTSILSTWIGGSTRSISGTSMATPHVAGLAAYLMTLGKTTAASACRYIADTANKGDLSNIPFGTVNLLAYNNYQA

N#CS.N=C(N)N [guanidinium thiocyanate]
Activity of proteinase K at t = 0 min (1 M guanidinium thiocyanate): 94%
Activity of proteinase K at t = 15 min (1 M guanidinium thiocyanate): 95%
Activity of proteinase K at t = 0 min (2 M guanidinium thiocyanate): 100%
Activity of proteinase K at t = 15 min (2 M guanidinium thiocyanate): 95%
Activity of proteinase K at t = 0 min (3 M guanidinium thiocyanate): 66%
Activity of proteinase K at t = 15 min (3 M guanidinium thiocyanate): 1%
Activity of proteinase K at t = 0 min (4 M guanidinium thiocyanate): 1%
Activity of proteinase K at t = 15 min (4 M guanidinium thiocyanate): 0%
Activity of proteinase K at t = 0 min (5 M guanidinium thiocyanate): 0%
Activity of proteinase K at t = 15 min (5 M guanidinium thiocyanate): 0%
Activity of proteinase K at t = 0 min (6 M guanidinium thiocyanate): 0%
Activity of proteinase K at t = 15 min (6 M guanidinium thiocyanate): 0%

Reference: patent publication US7491495B2, “Adsorption of nucleic acids to a solid phase” (Roche Diagnostics Operations, Inc., priority 2004, dated 2009)
